In patent US20260258066A1, “NOVEL RUTHENIUM COMPLEXES, METHOD OF THEIR SYNTHESIS, INTERMEDIATE COMPOUNDS USED IN THIS METHOD, METHOD OF THEIR SYNTHESIS AND THE USE OF NOVEL RUTHENIUM COMPLEXES IN OLEFIN METATHESIS REACTIONS” (UNIWERSYTET WARSZAWSKI, priority 2022, published 2026):

Experiment: Test of complex solubility in nonpolar solvents (n-hexane)
Format: physicochemical
Settings: 5 mg catalyst, n-hexane added in portions, room temperature, magnetic stirring
Method: In a round-bottom flask equipped with a stirring bar, the catalyst (Ru-a, Ru-b, Ru-c, Ru-d, Ru-h, Ru-15, Ru-16 and Hov-II) was placed, in the amount of 5 mg of each. n-hexane was added to each of the flasks in portions, at room temperature, and the mixture was stirred using a magnetic stirrer. The Ru-a dissolved in 6 mL, and the Ru-h complex in 4 mL of the solvent. In the case of the Ru-15 complex, almost complete solubility was observed after adding 20 mL of n-hexane.

Volume of n-hexane in which 5 mg of the complex dissolved: > 20 mL
Structure (SMILES): Cc1cc(C)c(N2CCN(c3c(C)cc(C)cc3C)[C]2=[Ru]([Cl])([Cl])=[CH]c2ccccc2OC(C)C)c(C)c1 [Hov-II]
